From US7897637B2, “Methods of using flavonoids to enhance memory” (The Salk Institute for Biological Studies, priority 2006, dated 2011)
“Also recorded” adds a separate entry of the source.

Tests used:
GSH = assay: Total cellular GSH levels in HT22 cells; format: cell-based, mouse; conditions: 8 hours; for GSH levels in the presence of oxidative stress: 5 mM glutamate
Experimental: The effects of fisetin derivatives on cellular GSH levels was then determined. HT22 cells were untreated (Ct) or treated with 10 μM fisetin, 25 μM 3,3′-DHF, 25 μM 3,4′-DHF, 2.5 μM 3′,4′-DHF, 2.5 μM 3,3′,4′-THF, 25 μM 3,7,3′-THF, 25 μM 3,7,4′-THF or 10 μM 7,3′,4′-THF alone or in the presence of 5 mM glutamate. After 8 hours cellular levels of total GSH were determined as described in Example 4. The GSH level of the control sample (31.5±10 nmoles/mg protein) was taken as 100%.
Total intracellular GSH/GSSG was determined using whole cell lysates from untreated, glutamate treated, flavonoid treated and glutamate plus flavonoid treated cells as described (Maher and Hanneken, Invest. Opthalmol. Vis. Sci., 46:749-57, 2005, herein incorporated by reference as to the method) and normalized to total cellular protein.

Male C57Bl/6J mice = assay: Object recognition task; format: in vivo; conditions: 60 minutes prior to training, vs vehicle
Experimental: The effect of fisetin, 3,3′,4′-THF, and apigenin (5,7,4′-THF) on memory was tested in mice using an object recognition task (Ennaceur and Delacour, Behav. Brain Res., 31:47-59, 1988). Among the alternatives available for testing memory, this assay has proven very effective for measuring CREB-dependent functions (Prickaerts et al., Neurosci., 113:351-61, 2002; Bourtchouladze et al., Proc. Natl. Acad. Sci. USA, 100:10518-22, 2003). In this test, mice are presented with two identical objects during the training period which they explore for a fixed time period. To test for memory, mice are presented one day later with two different objects, one of which was presented previously during the training and is thus familiar to the mice, and the other that is novel. The better a mouse remembers the familiar object, the more time it will spend exploring the novel object. To test the effects of fisetin, 3,3′,4′-THF, or apigenin (5,7,4′-THF) in this memory task, the respective compound was administered orally to the mice before the start of the training period. Rolipram, a phosphodiesterase inhibitor that potentiates memory in this assay (Bourtchouladze et al., Proc. Natl. Acad. Sci. USA, 100:10518-22, 2003), requires intraperitoneal injection and was used as a positive control.
Male C57Bl/6J mice (Jackson Laboratories) were used and the testing was done by PsychoGenics (Tarrytown, N.Y.). All mice were acclimated to the colony room for at least 2 weeks prior to testing and were tested at an average age of 8 weeks. Mice were randomly assigned across treatment groups with 10 mice in each group. For each dose tested, a 10× solution of fisetin was prepared in 95% ethanol and then diluted with 4 volumes polyethylene glycol 660 hydroxystearate (Solut HS15 from BASF) and 5 volumes phosphate buffered saline. The vehicle was contained the identical ratios of ethanol, Solut HS15 and phosphate buffered saline. All were administered orally 60 minutes prior to training at a volume of 10 ml/kg body weight. Rolipram was dissolved in 10% DMSO and administered intraperitoneally 20 minutes prior to training. The test was performed as previously described by Bourtchouladze et al. (Proc. Natl. Acad. Sci. USA, 100:10518-22, 2003). Briefly, on Day 1 mice were habituated to a circular open field arena for one hour in cage groups of four. Twenty-four (24) hours later, individual mice were placed back in the same arena which now contained two identical objects for a 15 minutes training trial. […] Each animal's test trial was recorded and the first 10 minutes of each session were scored. […] Data were analyzed by a one-way ANOVA followed by post-hoc comparisons with Fisher's test. […]

PC12 cells = assay: PC12 cell differentiation assay (neurite outgrowth); format: cell-based; conditions: for EC50 / Emax: Rattus norvegicus, PC-12, PC12 cells in N2 medium, 24 hours, neurites scored; for EC50: read-out: EC50 (μM), induction of PC12 cell differentiation; for Emax: read-out: Maximal Efficacy, induction of PC12 cell differentiation
Experimental: Four trihydroxyflavones (THF) and three dihydroxyflavones (DHF) which lack one or two, respectively, of the hydroxyl groups found in fisetin were tested for their ability to induce the differentiation of PC12 cells. Differentiation was assessed by scoring neurite outgrowth (Sagara et al., J. Neurochem., 90:1144-1155, 2004). […]
PC12 cells in N2 medium were treated with flavonoids for 24 hours at which time the cells were scored for the presence of neurites. PC12 cells produce neurites much more rapidly when treated in N2 medium than when treated in regular growth medium (Kimura et al., J. Cell Biol., 116:777-83, 1992). For each treatment, 100 cells in each of three separate fields were counted. Cells were scored positive if one or more neurites>1 cell body diameter in length were observed.

Rabbits = assay: Small blood clot embolism model of brain ischemia (P50); format: in vivo; conditions: 50 mg/kg intravenously, bolus 5 minutes after embolization; 24 hours post-embolism
Experimental: Rabbits were embolized with small blood clots of varying size (from about 1 mg to about 4 mg) according to the procedure described by Lapchak et al. (Exp. Neurol., 188.279-285, 2004). […] In some subjects, fisetin treatment (50 mg/kg delivered intravenously) was given as a bolus 5 minutes after embolization. Twenty four (24) hours later, a naïve observer rated each treated or control animal as either behaviorally normal or abnormal. Rabbits judged “abnormal” included those with at least one of the following symptoms: ataxia, leaning, circling, lethargy, nystagmus, loss of balance, loss of sensation and occasionally paraplegia. […] The effective stroke dose or P50 value was then calculated as the amount of microclots (in mg) that produce behavioral impairment in 50% of the animals within a specific treatment group.

[1] = test system: CA1 area of rat hippocampal slices; assay: Long-term potentiation in CA1 area of hippocampal slices; format: cell-based
[2] = weak tetanic stimulation 15 pulses at 100 Hz

Row | SMILES | GSH levels in the presence of oxidative stress (GSH) | object recognition (Male C57Bl/6J mice; 25 mg/kg oral) | ability to induce differentiation (PC12 cells; PC12 cells) | EC50 (PC12 cells) [µM] | Emax (PC12 cells) [%] | differentiation of the PC12 cells (PC12 cells; concentration of 5 μM) [%] | basal levels of GSH (GSH; flavonoid alone) | object recognition (Male C57Bl/6J mice; 10 mg/kg oral) | P50 value (mg clot that produce behavioral deficits in 50% of the animals) (Rabbits) [mg] | induction of LTP following weak tetanic stimulation ([1]; 15 pulses at 100 Hz, fisetin 20 minutes prior to, during and after) | effect on APV-dependent inhibition of excitatory postsynaptic potentials ([1]; in the presence of APV) | effect on basal synaptic transmission ([1]; no tetanus) | maximal effective dose for facilitation of LTP induction [1, 2] [µM] | persistence of facilitated LTP [1, 2]
1 | O=c1c(O)c(-c2ccc(O)c(O)c2)oc2ccccc12 [3,3′,4′-THF, 3,3′,4′-trihydroxyflavone] | able to maintain GSH levels | significantly increased object recognition | most effective of those tested | 2.5 | 80 to 90 | > 80 |  |  |  |  |  |  |  | 
2 | O=c1cc(-c2ccc(O)c(O)c2)oc2ccccc12 [3′,4′-DHF, 3′,4′-dihydroxyflavone] | could not maintain GSH levels |  |  | 10 | 40 to 50 |  | raised the basal levels of GSH |  |  |  |  |  |  | 
3 | O=c1c(O)c(-c2ccc(O)c(O)c2)oc2cc(O)ccc12 [fisetin, 3,3′,4′,7-tetrahydroxyflavone] |  | significant effects |  | 5 | 70 to 80 |  |  | significant effects | 2.18 ± 0.42 | LTP was induced; also recorded: facilitates the induction of LTP | no effect | no direct effect | 1 | at least 60 minutes
